Assay results as given in US20050119272A1, “Use of phosphodiesterase antagonists to treat insulin resistance” (DiaMedica Inc., priority 2002, published 2005).

Assays:
[1] = system: cats; assay: Development of insulin resistance in cats after intraportal muscarinic antagonists; assay type: in vivo, cat
Source text: To avoid the complexity of the reaction to hypoglycemia, the rapid insulin sensitivity test (RIST) was employed (Lautt et al., Can. J. Physiol. Pharmacol. 76:1080 (1998)) wherein a euglycemic clamp was used following the administration of insulin and the response was quantitated as the amount of glucose required to be infused over the test period in order to hold arterial blood glucose levels constant.

[2] = system: atropine-treated rats; assay: Rapid insulin sensitivity test (RIST) in the atropine model of 75% HDIR in rats; assay type: in vivo, rat
Description: Male Sprague Dawley rats (250-300 g) were allowed free access to water and normal rodent food for 1 week prior to all studies. Rats were fasted for 8 hours overnight and fed for 2 hours before the start of study. Rats were anesthetized with pentobarbital-sodium (65 mg/ml, ip injection, 0.1 ml/100 g body weight). Animals were placed on a heated thermostatically controlled surgical table to maintain body temperature during surgery and the experimental procedure. An extra-corporeal arterial-venous shunt (the loop) was established between the right femoral artery and right femoral vein, according to a published, standard operating procedure developed in our laboratory (Xie et al., 1996). The loop allows for regular blood sampling of arterial blood throughout the experiment as well as infusion of intravenous drugs and monitoring of arterial blood pressure. […] A laparotomy was performed and an indwelling portal venous catheter was inserted using a portal vein puncture technique. The portal catheter was used to administer the phosphodiesterase inhibitor directly to the liver. […] At this point, blood samples (25 μl) were taken at regular intervals from the loop and analyzed for glucose concentration. […] Glucose levels were monitored every 2 minutes during and after the infusion of insulin. […]

With COc1ccccc1CNCCCCCCNCCCCCCCCNCCCCCCNCc1ccccc1OC [methoctramine] the “dose required to produce a full insulin resistance” value ([1]; administered into the portal vein) was 10^−6 μmol/kg.
In the case of CN1CCN(CC(=O)N2c3ccccc3C(=O)Nc3cccnc32)CC1 [pirenzepine], the “dose achieving a similar degree of insulin resistance” value [1] is reported as 10^−7 mmol/kg.
For CCCOc1ccccc1-c1nc2nn[nH]c2c(=O)[nH]1 [zaprinast], the RIST index ([2]; after zaprinast 0.1 mg/kg ipv, following atropine-induced 75% HDIR, n=8) was 157.4 ± 6.1 mg/kg and the “reversal of HDIR produced by atropine” value ([2]; zaprinast 0.1 mg/kg ipv, rats) was “able to reverse the HDIR produced by atropine”.
